Assay results reported in US20250270584A1, “Gene editing to provide insect resistance in crops” (The Regents of the University of California, priority 2022, published 2025).

Key:
BoGLR3.3 = test: Single-cell Ca2+ imaging in COS-7 cells expressing BoGLR3.3; assay type: cell-based, Brassica oleracea; conditions: COS-7 cells expressing BoGLR3.3 alone, external Glu application
Experimental: (§1) The full-length coding sequences were amplified from cDNA of Arabidopsis (GLR3.1, GLR3.3, and GLR3.6), B. oleracea (BoGLR3.3) or O. sativa (OsGLR3.1). The coding sequences of GLR3.3-CD2 and GLR3.3-T3 were generated through site-directed mutagenesis with GLR3.3 as template. All coding sequences respectively inserted into a dual-promoter vector pBudCE4.1 (Invitrogen) with coding sequence of GCaMP6s for co-expression in […] or COS-7 cells as previously described. Mammalian cells were cultured in DMEM supplemented with 10% FBS in a 5% CO2 incubator at 37° C. under controlled humidity, and transfected using a Lipofectamine 3000 Transfection Reagent kit (Invitrogen).
(§2) COS-7 cells expressing GCaMP6s together with various GLR proteins were monitored by a Zeiss AxioObserver ZI inverted microscope (Ivision 4.5 software) with 2-s intervals under a 20× objective as previously described. The standard solution for Ca^2+ imaging contained 120 mM NaCl, 3 mM KCl, 1 mM MgCl2, 1.2 mM NaHCO3, 10 mM glucose, 10 mM HEPES, pH 7.5. At 60 s after initiation of the imaging procedure, the bath was perfused using a peristaltic pump with the standard solution supplemented with 100 mM glutamate to elicit Ca^2+ entry through active channels.

OsGLR3.1 = target: T1, OsGLR3.1 (Oryza sativa subsp. japonica, UniProt Q7XP59); test: Single-cell Ca2+ imaging in COS-7 cells expressing OsGLR3.1; assay type: cell-based; conditions: COS-7 cells expressing OsGLR3.1 alone, external Glu application
T1 construct: expressed in transfected cells; host or cells: COS-7
T1 sequence (Q7XP59 21-938): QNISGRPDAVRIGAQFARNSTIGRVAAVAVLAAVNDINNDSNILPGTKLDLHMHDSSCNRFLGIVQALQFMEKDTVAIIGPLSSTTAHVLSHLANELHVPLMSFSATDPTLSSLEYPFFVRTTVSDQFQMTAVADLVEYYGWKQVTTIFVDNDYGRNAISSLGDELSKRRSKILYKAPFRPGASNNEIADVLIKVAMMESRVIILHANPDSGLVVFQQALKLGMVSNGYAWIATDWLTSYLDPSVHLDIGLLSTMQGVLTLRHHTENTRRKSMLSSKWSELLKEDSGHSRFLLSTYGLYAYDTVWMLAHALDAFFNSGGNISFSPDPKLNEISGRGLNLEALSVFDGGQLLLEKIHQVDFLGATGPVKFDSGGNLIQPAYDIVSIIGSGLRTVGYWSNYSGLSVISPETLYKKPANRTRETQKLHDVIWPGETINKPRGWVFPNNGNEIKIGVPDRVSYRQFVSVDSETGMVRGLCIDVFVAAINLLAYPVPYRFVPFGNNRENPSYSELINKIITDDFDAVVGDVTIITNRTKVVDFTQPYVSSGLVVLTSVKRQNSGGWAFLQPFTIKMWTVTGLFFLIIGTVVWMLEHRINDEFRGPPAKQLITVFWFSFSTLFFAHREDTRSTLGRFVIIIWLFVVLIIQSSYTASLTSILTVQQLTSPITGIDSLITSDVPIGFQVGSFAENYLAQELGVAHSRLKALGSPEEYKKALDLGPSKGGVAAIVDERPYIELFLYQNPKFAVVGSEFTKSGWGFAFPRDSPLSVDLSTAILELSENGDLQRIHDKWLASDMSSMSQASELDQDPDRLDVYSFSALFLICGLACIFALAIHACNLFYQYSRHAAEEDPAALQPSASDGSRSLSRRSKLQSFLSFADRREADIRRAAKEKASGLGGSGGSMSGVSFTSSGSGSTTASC
Experimental: as §1, §2

GLR3.3 channel [1] = target: T2, GLR3.3 channel (Arabidopsis thaliana, UniProt Q9C8E7); test: Whole-cell patch-clamp recording in HEK293 cells expressing GLR3.3; assay type: cell-based; design: expressed in transfected cells; host or cells: COS-7 (Ca2+ imaging) / HEK293 (patch clamp); conditions: HEK293 cells expressing GLR3.3 alone, free internal Ca2+ in pipette 1 μM, external Glu
T2 sequence (Q9C8E7 24-933): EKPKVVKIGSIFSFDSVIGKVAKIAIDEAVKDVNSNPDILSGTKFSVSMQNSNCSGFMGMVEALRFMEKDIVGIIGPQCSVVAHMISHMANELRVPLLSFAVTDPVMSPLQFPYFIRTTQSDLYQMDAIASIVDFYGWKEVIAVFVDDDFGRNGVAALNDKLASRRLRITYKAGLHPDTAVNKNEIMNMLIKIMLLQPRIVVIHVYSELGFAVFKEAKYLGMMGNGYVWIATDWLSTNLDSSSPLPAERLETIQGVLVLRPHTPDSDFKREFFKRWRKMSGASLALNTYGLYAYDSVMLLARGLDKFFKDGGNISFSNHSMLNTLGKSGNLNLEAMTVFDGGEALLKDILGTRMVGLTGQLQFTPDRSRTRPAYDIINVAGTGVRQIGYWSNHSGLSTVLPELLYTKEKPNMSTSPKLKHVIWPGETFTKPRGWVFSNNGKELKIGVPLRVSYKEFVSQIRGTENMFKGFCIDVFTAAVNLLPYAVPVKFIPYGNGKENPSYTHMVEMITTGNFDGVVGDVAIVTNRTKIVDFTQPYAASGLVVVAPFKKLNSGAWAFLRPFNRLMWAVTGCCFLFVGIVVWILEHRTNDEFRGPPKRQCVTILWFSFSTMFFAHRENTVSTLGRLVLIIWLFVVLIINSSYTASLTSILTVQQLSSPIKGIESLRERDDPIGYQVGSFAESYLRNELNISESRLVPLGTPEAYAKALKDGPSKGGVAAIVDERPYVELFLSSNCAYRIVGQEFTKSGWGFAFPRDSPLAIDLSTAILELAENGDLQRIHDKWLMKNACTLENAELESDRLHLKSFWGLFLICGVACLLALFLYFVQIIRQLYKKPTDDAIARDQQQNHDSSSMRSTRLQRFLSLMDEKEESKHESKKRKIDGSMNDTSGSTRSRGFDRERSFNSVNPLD
Experimental: The whole-cell patch-clamp recordings were performed on an Axopatch 200B patch-clamp configuration with a Digidata 1550 digitizer (Axon Instruments) as described previously. Clampex 10.7 and Clampfit 10.7 software (Axon Instruments) were used for data acquisition and analysis.
To record Ca^2+ currents across plasma membrane of HEK293 cells, the bath solution contained 100 mM Na-glutamate, 40 mM NaCl, 5 mM KCl, 2 mM MgCl2, 10 mM CaCl2, 10 mM HEPES, and 10 mM glucose (pH 7.5, adjusted with NaOH). The pipette solution with 0 nM free Ca^2+ contained 140 mM CsCl, 5 mM EGTA, and 10 mM HEPES (pH 7.5, adjusted with CsOH), while the pipette solution with 1 μM free Ca^2+ contained 140 mM CsCl, 5 mM EGTA, 4.85 mM CaCl2) and 10 mM HEPES (pH 7.5, adjusted with CsOH). Free Ca^2+ was calculated with Webmaxc Standard software (https://somapp.ucdmc.ucdavis.edu/pharmacology/bers/maxchelator/webmaxc/webmaxcS.htm). A ramp voltage protocol of 2-s duration from −180 mV to +20 mV (holding potential 0 mV) was applied 1 min after achieving a whole-cell configuration, and currents were recorded every 20 s, with 5 repeats in total for each cell. The five current traces were used for statistical analysis to produce average current-voltage curves.

GLR3.3 channel [2] = target: T2, GLR3.3 channel; test: Single-cell Ca2+ imaging in COS-7 cells expressing GLR3.3; assay type: cell-based; design: expressed in transfected cells; host or cells: COS-7 (Ca2+ imaging); conditions: COS-7 cells expressing GLR3.3 alone, external Glu application (100 mM glutamate)
Experimental: as §1, §2

CaM7 = target: T3, CaM7 (Arabidopsis thaliana, UniProt P59220); test: ITC (isothermal titration calorimetry) assay of CBD peptides with 6His-CaM7; assay type: binding; conditions: ratio of KD values
T3 construct: made in house; host or cells: Escherichia coli BL21 (DE3)
Experimental: ITC was carried out at 25° C. on a MicroCal iTC200 instrument (GE Healthcare). 250 μM of peptides were titrated against 20 μM of 6His-CaM7 proteins (purified by size-exclusion chromatography using Superdex 200 Increase 10/300 GL, GE Healthcare) in the reaction buffer (25 mM HEPES, 100 mM NaCl, pH 7.5) with addition of 1 mM Ca^2+ or 2 mM EGTA. Titrations were performed by an automated sequence of 20 injections spaced at 150-s intervals to ensure complete equilibration, and raw data were analyzed with Origin software (version 7.0) supplied with the instrument.

| Structure (SMILES) | Glu-activated [Ca2+]cyt change (BoGLR3.3) | Glu-activated [Ca2+]cyt change (OsGLR3.1) | Glu-induced currents (GLR3.3 channel [1]) | Glu-activated [Ca2+]cyt change (GLR3.3 channel [2]) | CaM binding affinity lower than that of wild type CBD (CaM7) |
| --- | --- | --- | --- | --- | --- |
| N[C@@H](CCC(=O)O)C(=O)O [Glu, glutamate] | rapid [Ca^2+]cyt increases | rapid [Ca^2+]cyt increases | large inward currents | rapid [Ca^2+]cyt increases |  |
| CC(C)C[C@H](NC(=O)[C@H](CO)NC(=O)[C@H](CC(C)C)NC(=O)[C@H](Cc1ccccc1)NC(=O)[C@H](CCCNC(=N)N)NC(=O)[C@H](CCC(N)=O)NC(=O)[C@H](CC(C)C)NC(=O)[C@H](CCCNC(=N)N)NC(=O)[C@@H](NC(=O)[C@H](CO)NC(=O)[C@H](CC(=O)O)NC(=O)[C@H](Cc1c[nH]cn1)NC(=O)[C@H](CC(N)=O)NC(=O)[C@H](CCC(N)=O)NC(=O)[C@H](CCC(N)=O)NC(=O)[C@H](CCC(N)=O)NC(=O)[C@@H](N)CC(=O)O)[C@@H](C)O)C(=O)O [mutated CBD peptide] |  |  |  |  | approximately 10 fold |
